# Values quoted from earlier work, collected in US20120141587A1, “COMPOSITIONS AND METHODS FOR TREATMENT OR PREVENTION OF POST-OPERATIVE ORGAN OR TISSUE INFLAMMATION” (priority 2009, published 2012).
# How the values were obtained:
# atrial fibrillation = conditions: instilled into a canine's pericardial sac; Ayers et al. 1996
# inducible atrial flutter = conditions: oral; canine sterile pericarditis model; Goldstein et al. 2007
SMILES,effect on atrial fibrillation (atrial fibrillation),effect on inducible atrial flutter (inducible atrial flutter)
CCCCc1oc2ccccc2c1C(=O)c1cc(I)c(OCCN(CC)CC)c(I)c1 [amiodarone],effectiveness in suppressing atrial fibrillation,
C[C@]12C=CC(=O)C=C1CC[C@@H]1[C@@H]2C(=O)C[C@@]2(C)[C@H]1CC[C@]2(O)C(=O)CO [prednisone],,prevent inducible atrial flutter
